In paper PMC7377239, “Cardiovascular Effects of Polychlorinated Biphenyls and Their Major Metabolites” (Environmental Health Perspectives, 2020):
Structures can show the parent of a compound that is named as a salt. Where two headings read alike, the source gives them in different places.

Legend:
[1] = system: iCell cardiomyocytes (human iPSC-derived cardiomyocytes); assay: High-content imaging of cytotoxicity and mitochondrial integrity in iPSC-CMs; assay type: cell-based; details: Homo sapiens, Cardiomyocyte, cardiomyocytes (cm)
How it was run: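 Human iPSC-derived cardiomyocytes were seeded on gelatin-coated 384-well plates at 5,000 cells per well and maintained for 12 d. Test chemicals were added as 10μL of 5× solutions to final concentrations of 0.01 to 100μM. Cells were stained with Hoechst 33342 and MitoTracker™ Orange, fixed in formaldehyde, and imaged by confocal high-content microscopy at 10× magnification.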

HUVECs = assay: High-content imaging cytotoxicity in HUVECs, 24 h; assay type: cell-based, human; details: Homo sapiens, HUVEC, 24 h, HUVEC, 24 hr
How it was run: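 HUVECs (passages 1–5) were plated at 750 cells/well without fibronectin, grown to a monolayer (3–5 d) and exposed to compounds for 24 h at 37°C, 5% CO2. Hoechst 33342, MitoTracker Orange and calcein AM staining was imaged at 10×; readouts were normalized to 0.5% DMSO vehicle and fit to a four-parameter logistic model.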

O=S(=O)(O)Oc1cc(-c2ccccc2)ccc1Cl [3-PCB 3 sulfate]
minimal effective concentration ([1]; 1.5 h, cam, 90 min, read-out: POD cm.cam.90min): 100 µM
minimal effective concentration ([1]; 1.5 h, mii, 90 min, read-out: POD cm.mii.90min): 100 µM
minimal effective concentration ([1]; 1.5 h, mito, 90 min, read-out: POD cm.mito.90min): 100 µM
minimal effective concentration ([1]; 1.5 h, tc, 90 min, read-out: POD cm.tc.90min): 100 µM
minimal effective concentration ([1]; 24 h, cam, 24 hrs, read-out: POD cm.cam.24hrs): 100 µM
minimal effective concentration ([1]; 24 h, mii, 24 hrs, read-out: POD cm.mii.24hrs): 22.8 µM
minimal effective concentration ([1]; 24 h, mito, 24 hrs, read-out: POD cm.mito.24hrs): 100 µM
minimal effective concentration ([1]; 24 h, tc, 24 hrs, read-out: POD cm.tc.24hrs): 100 µM
minimal effective concentration (HUVECs; cyto, read-out: POD huvec.cyto.24hr): 100 µM
minimal effective concentration (HUVECs; mito, read-out: POD huvec.mito.24hr): 100 µM
minimal effective concentration (HUVECs; mitoint, read-out: POD huvec.mitoint.24hr): 100 µM
minimal effective concentration (HUVECs; nma, read-out: POD huvec.nma.24hr): 100 µM
minimal effective concentration (HUVECs; tc, read-out: POD huvec.tc.24hr): 100 µM
